Patent US20240287045A1, “CRYSTAL FORM OF PYRIMIDINE DERIVATIVE AND PREPARATION METHOD THEREFOR” (ZHEJIANG HISUN PHARMACEUTICAL CO., LTD., priority 2021, published 2024)

Experiments:
Type in all cases: physicochemical
[1] = Stability experiment: purity after 10 days of humidity, heat or light; settings: for stability compared with the amorphous form: conclusion from Table 6
Experimental: High-performance liquid chromatography (HPLC) test conditions involved in the present disclosure: the model of the liquid chromatograph was Agilent 1260; the chromatographic column was Waters XBridge C18 150*4.6 mm 3.5 μm; the detection wavelength was 234 nm; and the column temperature was 25° C.
(§1) The amorphous form of the compound of formula I prepared in Preparation Example, the crystal form A of the compound of formula I prepared in Example 1, the crystal form B of the compound of formula I prepared in Example 32, the crystal form C of the compound of formula I prepared in Example 48, the crystal form D of the compound of formula I prepared in Example 51, and the crystal form E of the compound of formula I prepared in Example 54 were placed in 75% RH, 92.5% RH, 40° C., 60° C. and light for 10 days respectively, and the X-ray powder diffraction pattern and purity of each crystal form were measured.

[2] = Granularity experiment (D50, D90); settings: for D50 / D90: granularity
Experimental: as §1, with “measured” for “placed in 75% RH, 92.5% RH, 40° C., 60° C. and light”, “granularity,” for “10 days respectively,”, “specific results are shown in Table 7 below: […]” for “X-ray powder diffraction pattern and purity of each crystal form were measured.”

[3] = Fluidity test (angle of repose); settings: for fluidity / angle of repose (in words): crystal forms compared with amorphous form
Experimental: as §1, with “measured” for “placed in 75% RH, 92.5% RH, 40° C., 60° C. and light”, “angle of repose,” for “10 days respectively,”, “specific results are shown in Table 8 below: […]” for “X-ray powder diffraction pattern and purity of each crystal form were measured.”

[4] = Hygroscopicity test; settings: for Hygroscopicity: 75% RH and 25° C. for 24 h, by weighing; for hygroscopicity (in words): crystal forms compared with amorphous form
Experimental: The amorphous form of the compound of formula I prepared in Preparation Example, the crystal form A of the compound of formula I prepared in Example 1, the crystal form B of the compound of formula I prepared in Example 32, the crystal form C of the compound of formula I prepared in Example 48, the crystal form D of the compound of formula I prepared in Example 51, and the crystal form E of the compound of formula I prepared in Example 54 were placed in an environment of 75% RH and 25° C. for 24 h and then weighed to calculate the hygroscopicity, respectively.

purity ([1]; 40° C. for 10 days)	purity ([1]; 60° C. for 10 days)	purity ([1]; 75% RH for 10 days)	purity ([1]; 92.5% RH for 10 days)	purity ([1]; Day 0)	purity ([1]; Light for 10 days)	stability compared with the amorphous form [1]	D50 [2] [μm]	D90 [2] [μm]	angle of repose ([3]; measurement 1) [°]	angle of repose ([3]; measurement 2) [°]	angle of repose ([3]; measurement 3) [°]	Hygroscopicity [4] [%]	D50 relative to the crystal forms ([2]; amorphous form D50 as share of crystal forms A-E) [%]	D90 relative to the crystal forms ([2]; amorphous form D90 as share of crystal forms A-E) [%]	granularity (in words) ([2]; compared with crystal forms A-E)	D50 ([2]; listed as amorphous form) [μm]	D90 ([2]; listed as amorphous form) [μm]	SMILES	fluidity / angle of repose (in words) [3]	hygroscopicity (in words) [4]
99.69	99.72	99.75	99.73	99.75	99.73	better stability	21.98	71.56	34.6	35.7	35.2	0.12	–	–	–	–	–	C=CC(=O)Nc1cc(N2CCN(CC)C3(CC3)C2)ccc1Nc1cc(N(C)C(=O)Nc2c(Cl)c(OC)cc(OC)c2Cl)ncn1 [Crystal form B, N-(2-((6-(3-(2,6-dichloro-3,5-dimethoxyphenyl)-1-methylureido)pyrimidin-4-yl)amino)-5-(4-ethyl-4,7-diazaspiro[2.5]octan-7-yl)phenyl)acrylamide]	significantly better than the amorphous form in terms of fluidity	significantly better than the amorphous form in terms of hygroscopicity
99.66	99.66	99.71	99.68	99.72	99.70	better stability	21.77	70.88	34.2	35.4	33.9	0.15	–	–	–	–	–	C=CC(=O)Nc1cc(N2CCN(CC)C3(CC3)C2)ccc1Nc1cc(N(C)C(=O)Nc2c(Cl)c(OC)cc(OC)c2Cl)ncn1 [Crystal form C, N-(2-((6-(3-(2,6-dichloro-3,5-dimethoxyphenyl)-1-methylureido)pyrimidin-4-yl)amino)-5-(4-ethyl-4,7-diazaspiro[2.5]octan-7-yl)phenyl)acrylamide]	significantly better than the amorphous form in terms of fluidity	significantly better than the amorphous form in terms of hygroscopicity
99.53	99.52	99.56	99.54	99.56	99.55	better stability	20.98	69.99	35.5	36.1	35.9	0.20	–	–	–	–	–	C=CC(=O)Nc1cc(N2CCN(CC)C3(CC3)C2)ccc1Nc1cc(N(C)C(=O)Nc2c(Cl)c(OC)cc(OC)c2Cl)ncn1 [Crystal form E, N-(2-((6-(3-(2,6-dichloro-3,5-dimethoxyphenyl)-1-methylureido)pyrimidin-4-yl)amino)-5-(4-ethyl-4,7-diazaspiro[2.5]octan-7-yl)phenyl)acrylamide]	significantly better than the amorphous form in terms of fluidity	significantly better than the amorphous form in terms of hygroscopicity

The next lines start with the compound.

SMILES	purity ([1]; 40° C. for 10 days)	purity ([1]; 60° C. for 10 days)	purity ([1]; 75% RH for 10 days)	purity ([1]; 92.5% RH for 10 days)	purity ([1]; Day 0)	purity ([1]; Light for 10 days)	stability compared with the amorphous form [1]	D50 [2] [μm]	D90 [2] [μm]	angle of repose ([3]; measurement 1) [°]	angle of repose ([3]; measurement 2) [°]	angle of repose ([3]; measurement 3) [°]	Hygroscopicity [4] [%]	D50 relative to the crystal forms ([2]; amorphous form D50 as share of crystal forms A-E) [%]	D90 relative to the crystal forms ([2]; amorphous form D90 as share of crystal forms A-E) [%]	granularity (in words) ([2]; compared with crystal forms A-E)	D50 ([2]; listed as amorphous form) [μm]	D90 ([2]; listed as amorphous form) [μm]	fluidity / angle of repose (in words) [3]	hygroscopicity (in words) [4]
C=CC(=O)Nc1cc(N2CCN(CC)C3(CC3)C2)ccc1Nc1cc(N(C)C(=O)Nc2c(Cl)c(OC)cc(OC)c2Cl)ncn1 [Crystal form A, N-(2-((6-(3-(2,6-dichloro-3,5-dimethoxyphenyl)-1-methylureido)pyrimidin-4-yl)amino)-5-(4-ethyl-4,7-diazaspiro[2.5]octan-7-yl)phenyl)acrylamide]	99.83	99.81	99.85	99.83	99.87	99.87	better stability	22.37	72.86	33.4	31.8	33.7	0.10	–	–	–	–	–	significantly better than the amorphous form in terms of fluidity	significantly better than the amorphous form in terms of hygroscopicity
C=CC(=O)Nc1cc(N2CCN(CC)C3(CC3)C2)ccc1Nc1cc(N(C)C(=O)Nc2c(Cl)c(OC)cc(OC)c2Cl)ncn1 [Amorphous form, N-(2-((6-(3-(2,6-dichloro-3,5-dimethoxyphenyl)-1-methylureido)pyrimidin-4-yl)amino)-5-(4-ethyl-4,7-diazaspiro[2.5]octan-7-yl)phenyl)acrylamide]	94.67	94.73	94.93	94.83	95.33	94.97	–	2.68	22.82	43.3	42.6	41.9	0.52	≤ 13	≤ 33	remarkably small granularity	2.68	22.82	significantly larger	significantly greater
C=CC(=O)Nc1cc(N2CCN(CC)C3(CC3)C2)ccc1Nc1cc(N(C)C(=O)Nc2c(Cl)c(OC)cc(OC)c2Cl)ncn1 [Crystal form D, N-(2-((6-(3-(2,6-dichloro-3,5-dimethoxyphenyl)-1-methylureido)pyrimidin-4-yl)amino)-5-(4-ethyl-4,7-diazaspiro[2.5]octan-7-yl)phenyl)acrylamide]	99.52	99.49	99.54	99.54	99.55	99.53	better stability	20.98	70.49	35.6	36.2	35.1	0.16	–	–	–	–	–	significantly better than the amorphous form in terms of fluidity	significantly better than the amorphous form in terms of hygroscopicity
